# Experimental data reported in patent US20030040531A1, “Remedies for reperfusion injury containing integrin alphanubeta 3 antagonist” (priority 2000, published 2003).
# Assays:
# Format in all cases: cell-based
# [1] = system: dog vascular smooth muscle cells; assay: adhesion of dog vascular smooth muscle cells to bovine vitronectin; conditions: Canis lupus familiaris, read-out: concentration (IC50) necessary for inhibition of adhesion to vitronectin
# Experimental: (§1) The adhesion of vascular smooth muscle cells to immobilized human vitronectin was measured in accordance with the method of Liaw et al. (L. Liaw et al., Circ. Res., 74, 214 (1994)). A Dulbecco's phosphate buffer (Dulbecco's PBS(−)) solution of human serum-derived vitronectin adjusted to a concentration of 4 μg/ml was first added to wells (50 μl/well) of a microplate (Maxisorp), and a reaction for immobilization was allowed to proceed at 4° C. overnight. After washing twice with 150 μl of Dulbecco's PBS (−), Dulbecco's PBS (−) containing 10 mg/ml of bovine serum albumin was added, followed by blocking at 37° C. for one hr. The microplate was then washed twice with 150 μl of Dulbecco's PBS (−) to prepare an assay plate.
# (§2) Next, 50 μl of a Dulbecco's modified Eagle's basal medium containing 20 mg/ml of bovine serum albumin with a medicament added thereto was added to the wells of the human vitronectin-coated assay microplate, followed by pre-cultivation under 5% carbon dioxide at 37° C. for 10 min. Thereafter, 50 μl of the Dulbecco's modified Eagle's basal medium with human vascular smooth muscle cells suspended therein was added thereto, and the plate was thoroughly stirred. A reaction was allowed to proceed under 5% carbon dioxide at 37° C. for 90 min. The reaction solution containing non-adherent cells was then removed, followed by washing three times with Dulbecco's PBS (−). For the adhered cells, 100 μl of Dulbecco's PBS (−) containing 4% paraformaldehyde was added, and immobilization was allowed to proceed at room temperature for 10 min. Next, 100 μl of a Dulbecco's PBS (−) containing 0.5% Toluidine Blue and 4% paraformaldehyde was added, and staining was allowed to proceed at room temperature for 5 min, followed by thorough washing with distilled water. The inside of the wells was then air-dried, and 1% aqueous sodium dodecylsulfate solution was then added to perform cytolysis. The absorbance of the microplate thus obtained was measured at 595 nm. […] The inhibition was calculated by the following equation. IC50 was determined from a primary regression line of the logarithm of each concentration of the test compound and the logarithm of (100−inhibition)/inhibition. [formula]
# (§3) Rat vascular smooth muscle cells were cultivated in a medium composed of a mixture of equal amounts of 15% fetal calf serum-containing 199 medium and RPMI 1640 medium. Separately, hamster and dog vascular smooth muscle cells were cultivated in a 10% fetal calf serum-containing Dulbecco's modified Eagle's basal medium. These cultivated cells were then suspended in a Dulbecco's modified Eagle's basal medium to concentrations of 3×10^5 cells/ml (rat), 3×10^5 cells/ml (hamster), and 4×10^5 cells /ml (dog), respectively. Rat vitronectin was used in the adhesion system of rats and hamsters, while bovine vitronectin was used in the adhesion system of dogs.
# [2] = system: human vascular smooth muscle cells; assay: adhesion of human vascular smooth muscle cells to immobilized human vitronectin; conditions: read-out: concentration (IC50) necessary for inhibition of adhesion to vitronectin
# Experimental: as §1
# Separately, human vascular smooth muscle cells cultivated at 37° C. under 5% carbon dioxide in a medium for vascular smooth muscle cells were separated using a Dulbecco's PBS (−) containing trypsin-EDTA, were washed with Dulbecco's PBS (−), and were then suspended in a Dulbecco's modified Eagle's basal medium to a concentration of 2×10^5/ml.
# as §2
# U937 cells = assay: adhesion of human monocytes (U937 cells) to human activated vascular endothelial cells; conditions: average on three wells±SD, control group 4522±1027
# Experimental: The adhesion of human monocytes to vascular endothelial cells was measured with reference to the method of Murphy et al. (J. F. Murphy et al., Biochem. J. 304, 537 (1994)). Human funicular venoendothelial cells (4×10^4/well), which had been cultivated in a type-I collagen-coated flask containing a 199 medium containing an endothelial cell growth factor (15 μg/ml), heparin (5 U/ml), and 20% fetal calf serum, were cultivated using a type-I collagen-coated microplate in the above medium under 5% carbon dioxide at 37° C. for 2 days to prepare a layer of vascular endothelial cells. The layer of vascular endothelial cells was washed with PBS (−) and was then cultivated in PBS (−) containing 1 U/ml bovine thrombin, 5 mM CaCl2, and 5 mM MgCl2 for 5 min, followed -by washing with PBS(−) containing 10^-6 M D-phenylalanyl-L-prolyl-L-argininechloromethane and with PBS(−).
# Next, U937 cells, which had been cultivated in an RPMI 1640 medium containing 10% fetal calf serum, were cultivated in the above medium containing 6 μM 2′,7′-bis(carboxyethyl)carboxyfluorescein tetraacetoxymethyl ester under 5% carbon dioxide at 37° C. for one hr, were washed with PBS (−), and were subjected to fluorescent labeling. The labeled U937 cells (2×10^5/well), the medicament, and 100 μl of an RPMI 1640 medium containing 1% fetal calf serum were added onto the layer of vascular endothelial cells, and an adhesion reaction was allowed to proceed under 5% carbon dioxide at 37° C. for 10 min. Next, nonadherent cells were removed, and 50 mM Tris HCl (pH 8.4) containing 0.1% sodium dodecylsulfate was added to elute the fluorescent dye, followed by fluorometry (excitation wavelength 485 nm, measurement wavelength 530 nm).
# [3] = system: rat vascular smooth muscle cells; assay: adhesion of rat vascular smooth muscle cells to rat vitronectin; conditions: read-out: concentration (IC50) necessary for inhibition of adhesion to vitronectin
# Experimental: as §1, §2, §3
# platelet aggregation = assay: inhibition of platelet aggregation, rat; conditions: read-out: concentration (IC50) necessary for inhibition of platelet aggregation
structure (smiles),measurement,setting,value
"O=C(NCC(NS(=O)(=O)c1ccccc1)C(=O)O)c1ccc(N2CCC(NC3=NCCCN3)CC2)c(F)c1 (stereo in doubt) [formula (IV), (2S)-Benzenesulfonylamino-3-[3-fluoro-4-{4-(1,4,5,6-tetrahydropyrimidin-2-ylamino)-piperidin-1-yl}benzoylamino]propionic Acid]",IC50,[1],26 nM
same,IC50,[2],37 nM
same,fluorescence intensity (adhered U937 cells),U937 cells; 10^-6 M,3710+969 arbitrary unit
same,fluorescence intensity (adhered U937 cells),U937 cells; 10^-7 M,4389+640 arbitrary unit
same,fluorescence intensity (adhered U937 cells),U937 cells; 10^−4 M,-34+74 arbitrary unit
same,fluorescence intensity (adhered U937 cells),U937 cells; 10^−5 M,1968±187 arbitrary unit
same,IC50,[3],230 nM
same,IC50,platelet aggregation,> 100 µM
